{
  "source": "ChEMBL document CHEMBL1201862",
  "about": "“PubChem BioAssay data set” (2004)",
  "key": {"[1]": {"biological_target": "Glucose-6-phosphate 1-dehydrogenase (Homo sapiens, UniProt P11413)", "sequence (P11413 whole entry)": "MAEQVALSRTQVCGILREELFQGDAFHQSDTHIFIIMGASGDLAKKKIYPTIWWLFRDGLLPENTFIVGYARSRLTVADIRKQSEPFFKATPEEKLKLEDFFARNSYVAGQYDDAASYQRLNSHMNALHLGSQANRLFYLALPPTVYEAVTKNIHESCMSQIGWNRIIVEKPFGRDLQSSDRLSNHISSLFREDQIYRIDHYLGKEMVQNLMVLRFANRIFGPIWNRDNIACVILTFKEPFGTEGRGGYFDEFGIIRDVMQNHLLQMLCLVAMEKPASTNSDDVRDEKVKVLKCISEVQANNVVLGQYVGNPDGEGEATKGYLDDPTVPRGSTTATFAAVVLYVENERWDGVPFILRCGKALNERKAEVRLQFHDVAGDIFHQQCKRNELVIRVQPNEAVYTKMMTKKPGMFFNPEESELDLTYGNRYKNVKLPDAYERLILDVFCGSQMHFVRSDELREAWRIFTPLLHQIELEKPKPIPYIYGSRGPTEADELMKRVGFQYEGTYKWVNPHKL", "experiment": "human G6PD enzyme inhibitors, dose response, selectivity assay for P. falciparum G6PD inhibitor project, biochemical, fluorescence (AID 504792)", "format": "functional"}, "Cysteine protease ATG4B": {"biological_target": "Cysteine protease ATG4B (Homo sapiens, UniProt Q9Y4P1)", "sequence (Q9Y4P1 whole entry)": "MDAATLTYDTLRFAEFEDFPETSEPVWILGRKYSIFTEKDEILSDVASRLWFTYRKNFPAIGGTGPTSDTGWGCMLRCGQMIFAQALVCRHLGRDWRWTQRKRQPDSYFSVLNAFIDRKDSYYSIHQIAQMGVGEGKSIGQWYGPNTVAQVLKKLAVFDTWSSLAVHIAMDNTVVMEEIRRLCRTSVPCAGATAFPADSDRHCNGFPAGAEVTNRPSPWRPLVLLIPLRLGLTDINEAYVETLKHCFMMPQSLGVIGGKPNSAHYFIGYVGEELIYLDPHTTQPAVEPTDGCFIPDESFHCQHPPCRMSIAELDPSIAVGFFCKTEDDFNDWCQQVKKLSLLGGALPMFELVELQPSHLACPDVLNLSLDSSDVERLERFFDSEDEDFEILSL", "format": "functional"}, "Phospholipase A2": {"biological_target": "Phospholipase A2 (Homo sapiens, UniProt P04054)", "sequence (P04054 whole entry)": "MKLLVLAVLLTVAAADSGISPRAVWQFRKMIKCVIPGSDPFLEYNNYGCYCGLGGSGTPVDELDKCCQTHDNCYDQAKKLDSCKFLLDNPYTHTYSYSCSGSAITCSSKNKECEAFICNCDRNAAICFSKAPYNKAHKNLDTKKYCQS", "format": "functional"}, "[2]": {"biological_target": "T1, Aryl hydrocarbon receptor (Homo sapiens, UniProt P35869)", "T1 sequence (P35869 whole entry)": "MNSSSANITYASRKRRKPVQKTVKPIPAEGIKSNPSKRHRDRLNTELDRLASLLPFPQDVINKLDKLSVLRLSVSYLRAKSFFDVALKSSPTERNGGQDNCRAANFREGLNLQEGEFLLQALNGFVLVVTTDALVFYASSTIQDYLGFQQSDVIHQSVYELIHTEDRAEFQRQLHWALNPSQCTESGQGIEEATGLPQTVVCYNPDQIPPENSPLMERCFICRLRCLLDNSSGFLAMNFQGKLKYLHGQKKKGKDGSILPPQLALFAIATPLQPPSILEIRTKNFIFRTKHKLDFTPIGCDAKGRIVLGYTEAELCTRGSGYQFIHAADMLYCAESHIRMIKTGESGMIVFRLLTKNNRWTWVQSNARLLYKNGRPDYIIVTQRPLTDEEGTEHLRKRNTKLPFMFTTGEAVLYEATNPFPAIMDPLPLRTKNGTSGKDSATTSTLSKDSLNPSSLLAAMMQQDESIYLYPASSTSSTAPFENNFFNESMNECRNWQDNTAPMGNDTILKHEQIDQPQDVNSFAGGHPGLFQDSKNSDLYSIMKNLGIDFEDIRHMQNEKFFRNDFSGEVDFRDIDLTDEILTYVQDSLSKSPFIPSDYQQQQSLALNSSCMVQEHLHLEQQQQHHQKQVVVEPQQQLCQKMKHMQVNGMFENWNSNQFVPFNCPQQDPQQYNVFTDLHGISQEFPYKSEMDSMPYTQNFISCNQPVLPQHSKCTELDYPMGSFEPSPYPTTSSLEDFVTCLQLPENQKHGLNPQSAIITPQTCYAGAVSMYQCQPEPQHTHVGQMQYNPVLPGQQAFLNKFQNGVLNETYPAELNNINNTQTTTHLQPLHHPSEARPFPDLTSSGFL", "details": "Potency"}, "[3]": {"biological_target": "T2, High affinity choline transporter 1 (Homo sapiens, UniProt Q9GZV3)", "T2 sequence (Q9GZV3 whole entry)": "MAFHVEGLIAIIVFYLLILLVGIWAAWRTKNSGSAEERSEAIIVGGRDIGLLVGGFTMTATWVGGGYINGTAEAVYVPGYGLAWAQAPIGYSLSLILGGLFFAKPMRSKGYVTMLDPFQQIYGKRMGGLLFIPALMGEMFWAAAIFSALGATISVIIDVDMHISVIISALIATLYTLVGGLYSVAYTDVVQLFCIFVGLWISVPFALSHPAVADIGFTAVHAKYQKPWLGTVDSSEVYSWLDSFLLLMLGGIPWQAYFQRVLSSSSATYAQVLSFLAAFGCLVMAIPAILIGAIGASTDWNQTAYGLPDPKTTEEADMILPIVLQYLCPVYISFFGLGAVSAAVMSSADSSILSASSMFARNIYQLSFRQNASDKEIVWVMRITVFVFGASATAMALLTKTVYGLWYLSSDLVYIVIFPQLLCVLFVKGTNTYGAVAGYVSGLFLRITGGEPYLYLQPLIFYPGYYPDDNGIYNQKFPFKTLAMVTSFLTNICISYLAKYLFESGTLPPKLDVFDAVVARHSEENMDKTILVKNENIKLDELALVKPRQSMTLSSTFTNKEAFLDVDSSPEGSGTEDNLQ", "experiment": "CHT inhibitors, dose response, cell-based, 5-point CRC, membrane potential dye (AID 504840)", "format": "functional"}, "[4]": {"biological_target": "T2, High affinity choline transporter 1", "experiment": "CHT inhibitors, dose response, cell-based, 10-point CRC, membrane potential dye (AID 588401);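 further: membrane potential dye fluorescence of choline-evoked depolarization via CHT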", "format": "functional"}, "[5]": {"biological_target": "T3, Beta-adrenergic receptor kinase 1 (Homo sapiens, UniProt P25098)", "T3 sequence (P25098 whole entry)": "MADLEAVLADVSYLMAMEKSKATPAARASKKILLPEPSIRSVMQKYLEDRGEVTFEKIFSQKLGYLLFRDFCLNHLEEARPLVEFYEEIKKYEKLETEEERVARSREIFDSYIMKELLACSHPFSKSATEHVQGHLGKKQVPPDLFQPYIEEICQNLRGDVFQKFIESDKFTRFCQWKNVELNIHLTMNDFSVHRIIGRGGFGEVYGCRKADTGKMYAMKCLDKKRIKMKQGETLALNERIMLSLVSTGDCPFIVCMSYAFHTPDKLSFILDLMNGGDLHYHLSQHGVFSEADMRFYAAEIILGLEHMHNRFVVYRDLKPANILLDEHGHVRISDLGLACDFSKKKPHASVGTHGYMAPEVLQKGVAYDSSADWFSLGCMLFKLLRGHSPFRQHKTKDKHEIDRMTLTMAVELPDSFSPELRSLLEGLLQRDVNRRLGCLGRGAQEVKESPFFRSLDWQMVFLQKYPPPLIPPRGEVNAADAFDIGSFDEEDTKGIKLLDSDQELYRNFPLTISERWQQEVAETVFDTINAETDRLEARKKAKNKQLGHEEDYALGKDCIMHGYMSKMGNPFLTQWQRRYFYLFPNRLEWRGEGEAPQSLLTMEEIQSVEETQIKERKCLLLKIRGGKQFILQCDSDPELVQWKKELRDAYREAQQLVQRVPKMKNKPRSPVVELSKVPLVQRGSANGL", "experiment": "aptamer displacement from bead-bound GRK2 – biochemical, cherry pick 1, bead flow cytometry, dose response (AID 504500)"}, "[6]": {"biological_target": "T4, Carboxy-terminal domain RNA polymerase II polypeptide A small phosphatase 1 (Homo sapiens, UniProt Q9GZU7)", "T4 sequence (Q9GZU7 whole entry)": "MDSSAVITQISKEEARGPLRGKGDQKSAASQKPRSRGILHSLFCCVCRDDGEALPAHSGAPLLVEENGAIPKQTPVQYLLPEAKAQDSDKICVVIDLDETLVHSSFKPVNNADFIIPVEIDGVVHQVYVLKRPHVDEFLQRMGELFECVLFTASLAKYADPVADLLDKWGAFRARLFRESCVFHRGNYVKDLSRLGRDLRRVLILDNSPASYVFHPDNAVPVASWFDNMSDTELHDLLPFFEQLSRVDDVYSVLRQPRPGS", "experiment": "inhibitors of CTDSP1, concentration-response testing, biochemical assay, absorbance-based, actives from ultra-high-throughput screening (AID 540297)", "format": "functional"}, "Caspase-6": {"biological_target": "T5, Caspase-6 (Homo sapiens, UniProt P55212)", "T5 sequence (P55212 whole entry)": "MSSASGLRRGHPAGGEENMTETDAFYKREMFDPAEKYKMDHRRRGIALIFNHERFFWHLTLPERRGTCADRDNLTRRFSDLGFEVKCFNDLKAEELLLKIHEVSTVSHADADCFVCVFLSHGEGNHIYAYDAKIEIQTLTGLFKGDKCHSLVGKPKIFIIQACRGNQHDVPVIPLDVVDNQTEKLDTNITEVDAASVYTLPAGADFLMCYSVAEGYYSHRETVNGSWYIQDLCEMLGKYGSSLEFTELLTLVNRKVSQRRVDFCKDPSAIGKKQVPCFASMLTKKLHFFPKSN", "experiment": "human caspase-6 inhibitors, dose response, biochemical, VEID-R110 fluorescence, cherry-pick (AID 720632)"}, "[7]": {"biological_target": "DNA dC->dU-editing enzyme APOBEC-3A (Homo sapiens, UniProt P31941)", "sequence (P31941 whole entry)": "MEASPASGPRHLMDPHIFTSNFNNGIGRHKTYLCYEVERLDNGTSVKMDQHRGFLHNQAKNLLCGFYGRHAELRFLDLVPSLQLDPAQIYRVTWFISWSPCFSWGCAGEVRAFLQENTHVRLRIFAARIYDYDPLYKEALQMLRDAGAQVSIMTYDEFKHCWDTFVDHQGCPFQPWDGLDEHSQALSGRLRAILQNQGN", "experiment": "SAR analysis of small molecule inhibitors of APOBEC3A DNA Deaminase via a fluorescence-based single-stranded DNA deaminase assay - Set 2.", "format": "functional", "details": "read-out: IC50_Mean"}, "[8]": {"biological_target": "DNA dC->dU-editing enzyme APOBEC-3G (Homo sapiens, UniProt Q9HC16)", "sequence (Q9HC16 whole entry)": "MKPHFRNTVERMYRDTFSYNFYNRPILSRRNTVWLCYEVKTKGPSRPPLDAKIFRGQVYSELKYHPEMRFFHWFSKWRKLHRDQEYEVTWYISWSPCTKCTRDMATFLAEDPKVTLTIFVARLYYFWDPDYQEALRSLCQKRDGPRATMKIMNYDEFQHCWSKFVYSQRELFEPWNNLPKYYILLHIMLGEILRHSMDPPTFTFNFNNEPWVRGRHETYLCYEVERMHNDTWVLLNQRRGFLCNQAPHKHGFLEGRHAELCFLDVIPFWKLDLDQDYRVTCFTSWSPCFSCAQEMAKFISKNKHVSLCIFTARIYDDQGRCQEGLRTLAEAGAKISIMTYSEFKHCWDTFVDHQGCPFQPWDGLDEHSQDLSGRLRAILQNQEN", "experiment": "SAR analysis of small molecule inhibitors of APOBEC3G DNA Deaminase via a fluorescence-based single-stranded DNA deaminase assay - Set 2.", "format": "functional", "details": "read-out: IC50_Mean"}, "[9]": {"biological_target": "Tyrosine-protein phosphatase non-receptor type 11 (Homo sapiens, UniProt Q06124)", "sequence (Q06124 whole entry)": "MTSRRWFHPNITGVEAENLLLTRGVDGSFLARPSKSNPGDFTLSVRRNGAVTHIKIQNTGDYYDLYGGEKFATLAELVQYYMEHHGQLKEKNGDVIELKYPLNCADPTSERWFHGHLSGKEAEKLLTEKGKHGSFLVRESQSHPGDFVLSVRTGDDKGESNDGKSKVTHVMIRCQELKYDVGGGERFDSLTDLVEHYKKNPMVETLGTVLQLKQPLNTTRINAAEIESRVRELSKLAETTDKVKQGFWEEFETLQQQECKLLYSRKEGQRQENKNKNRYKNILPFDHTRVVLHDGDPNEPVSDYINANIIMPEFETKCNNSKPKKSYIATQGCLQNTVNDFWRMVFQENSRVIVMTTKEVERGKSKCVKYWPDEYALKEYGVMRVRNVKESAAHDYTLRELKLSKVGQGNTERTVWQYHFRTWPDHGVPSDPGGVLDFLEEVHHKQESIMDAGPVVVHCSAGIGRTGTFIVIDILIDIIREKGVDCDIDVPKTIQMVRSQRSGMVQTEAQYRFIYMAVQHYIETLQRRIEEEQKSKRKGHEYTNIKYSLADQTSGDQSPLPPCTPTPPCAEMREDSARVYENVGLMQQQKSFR", "experiment": "SHP2 phosphatase inhibition, dose response, selectivity assay for STEP inhibitor project, biochemical (AID 602367)", "format": "functional", "details": "read-out: IC50_Mean"}, "[10]": {"biological_target": "Dual specificity protein phosphatase 3 (Homo sapiens, UniProt P51452)", "sequence (P51452 whole entry)": "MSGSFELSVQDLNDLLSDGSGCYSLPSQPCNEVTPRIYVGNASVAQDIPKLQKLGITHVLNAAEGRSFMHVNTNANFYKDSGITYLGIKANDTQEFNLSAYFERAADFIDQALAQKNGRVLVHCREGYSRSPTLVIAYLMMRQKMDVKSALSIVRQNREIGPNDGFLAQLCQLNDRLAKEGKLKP", "experiment": "VHR phosphatase inhibition, dose response, selectivity assay for STEP inhibitor project, biochemical (AID 602374)", "format": "functional", "details": "read-out: IC50_Mean"}, "[11]": {"biological_target": "Tyrosine-protein phosphatase non-receptor type 5 (Homo sapiens, UniProt P54829)", "sequence (P54829 whole entry)": "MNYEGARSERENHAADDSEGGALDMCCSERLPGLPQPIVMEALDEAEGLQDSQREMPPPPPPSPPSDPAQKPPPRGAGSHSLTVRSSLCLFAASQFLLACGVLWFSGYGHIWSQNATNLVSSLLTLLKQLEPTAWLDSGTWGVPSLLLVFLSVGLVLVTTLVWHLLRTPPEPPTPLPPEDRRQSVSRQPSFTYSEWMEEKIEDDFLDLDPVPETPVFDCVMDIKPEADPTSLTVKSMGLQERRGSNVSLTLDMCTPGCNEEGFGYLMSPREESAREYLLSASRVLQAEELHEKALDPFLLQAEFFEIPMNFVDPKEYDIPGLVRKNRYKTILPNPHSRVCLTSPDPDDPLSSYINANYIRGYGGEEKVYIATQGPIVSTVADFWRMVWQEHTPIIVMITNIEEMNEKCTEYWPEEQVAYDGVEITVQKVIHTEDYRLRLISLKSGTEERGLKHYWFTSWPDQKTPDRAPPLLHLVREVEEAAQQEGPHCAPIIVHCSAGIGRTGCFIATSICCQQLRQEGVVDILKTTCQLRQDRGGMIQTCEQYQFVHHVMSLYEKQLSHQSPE", "experiment": "STEP phosphatase inhibitors, confirmation, biochemical, fluorescence intensity, uHTS hits (AID 602372)", "format": "functional", "details": "read-out: IC50_Mean"}, "[12]": {"biological_target": "T6, Apoptotic protease-activating factor 1 (Homo sapiens, UniProt O14727)", "T6 sequence (O14727 whole entry)": "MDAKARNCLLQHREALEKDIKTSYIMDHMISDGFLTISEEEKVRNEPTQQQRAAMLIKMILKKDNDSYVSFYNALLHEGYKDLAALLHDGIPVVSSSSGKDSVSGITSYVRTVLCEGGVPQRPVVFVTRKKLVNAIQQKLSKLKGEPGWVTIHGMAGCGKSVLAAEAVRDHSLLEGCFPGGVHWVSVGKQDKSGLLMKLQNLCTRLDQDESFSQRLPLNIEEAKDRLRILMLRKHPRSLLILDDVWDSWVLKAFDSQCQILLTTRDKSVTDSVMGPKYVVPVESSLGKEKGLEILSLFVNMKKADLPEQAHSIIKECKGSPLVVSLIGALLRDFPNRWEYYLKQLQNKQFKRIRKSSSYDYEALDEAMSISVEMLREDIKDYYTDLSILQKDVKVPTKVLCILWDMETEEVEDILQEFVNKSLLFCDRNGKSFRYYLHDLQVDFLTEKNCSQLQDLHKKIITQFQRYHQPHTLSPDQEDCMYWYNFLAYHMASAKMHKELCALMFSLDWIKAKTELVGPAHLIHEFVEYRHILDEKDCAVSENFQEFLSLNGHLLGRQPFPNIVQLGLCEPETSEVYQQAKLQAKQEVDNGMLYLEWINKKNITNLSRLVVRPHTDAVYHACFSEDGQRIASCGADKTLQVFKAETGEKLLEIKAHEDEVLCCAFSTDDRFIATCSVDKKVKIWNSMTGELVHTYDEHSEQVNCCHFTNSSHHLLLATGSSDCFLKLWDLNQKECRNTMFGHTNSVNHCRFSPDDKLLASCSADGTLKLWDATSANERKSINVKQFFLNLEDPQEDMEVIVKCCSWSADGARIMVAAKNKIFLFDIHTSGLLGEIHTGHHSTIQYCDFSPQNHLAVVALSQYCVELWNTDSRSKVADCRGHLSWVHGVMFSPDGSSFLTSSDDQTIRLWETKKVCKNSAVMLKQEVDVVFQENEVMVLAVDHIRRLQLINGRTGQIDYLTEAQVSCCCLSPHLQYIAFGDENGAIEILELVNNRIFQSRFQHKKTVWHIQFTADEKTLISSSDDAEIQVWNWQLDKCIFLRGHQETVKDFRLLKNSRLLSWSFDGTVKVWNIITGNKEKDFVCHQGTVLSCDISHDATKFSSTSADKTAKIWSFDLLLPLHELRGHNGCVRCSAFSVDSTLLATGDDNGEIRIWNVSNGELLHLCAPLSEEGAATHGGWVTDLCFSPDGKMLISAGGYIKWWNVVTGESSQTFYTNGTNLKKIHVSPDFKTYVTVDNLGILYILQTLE", "experiment": "SAR analysis of small molecule Activators of Apaf-1 in a Fluorescent assay.", "format": "functional", "details": "read-out: EC50_Mean"}},
  "note": "Calls of active or inactive are those of the source.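 Wherever EC50 Mean is given: caspase-3 cleavage of fluorogenic Rh110 DEVD substrate downstream of apoptosome activation.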",
  "data": [
    {"smiles": "Clc1cccc(Cl)c1CNc1ccc(N2CCCC2)cc1", "values": [
      {"measurement": "IC50", "setting": "[1]", "result": "> 80 µM (inactive)"},
      {"measurement": "IC50", "setting": "Cysteine protease ATG4B", "result": "11.9 µM (active)"},
      {"measurement": "IC50", "setting": "Phospholipase A2", "result": "7.99 µM (active)"}
    ]},
    {"smiles": "N[C@@H](Cc1c[nH]c2ccc(O)cc12)C(=O)O", "note": "[OXITRIPTAN]", "values": [
      {"measurement": "AC50", "setting": "[2]", "result": "39.8 µM (inconclusive)"}
    ]},
    {"smiles": "CCn1cc(C(=O)NCCCN2CCC(C)CC2)c(=O)c2cc(S(=O)(=O)N(C)C3CCCCC3)ccc21", "values": [
      {"measurement": "IC50", "setting": "[3]", "result": "7.24 µM (active)"},
      {"measurement": "IC50", "setting": "[4]", "result": "7.94 µM (active)"}
    ]},
    {"smiles": "CCOc1ccc(CCNC(=O)C2CC(C)=CCC2C(=O)O)cc1OCC", "note": "(stereo not given)", "values": [
      {"measurement": "EC50", "setting": "[5]", "result": "51.3 µM (inactive)"},
      {"measurement": "IC50", "setting": "[6]", "result": "21 µM (active)"},
      {"measurement": "AC50", "setting": "Caspase-6", "result": "15.5 µM (active)"}
    ]},
    {"smiles": "Cc1nc2sc3c(c2c2n[nH]c(=S)n12)CCCC3", "values": [
      {"measurement": "IC50", "setting": "[7]", "result": "> 99 µM (inactive)"},
      {"measurement": "IC50", "setting": "[8]", "result": "0.693 µM (active)"}
    ]},
    {"smiles": "CCCN(CC(=O)Nc1ccccc1OC)C(=O)Cc1ccc2c(c1)CCC2", "values": [
      {"measurement": "IC50", "setting": "[9]", "result": "4.79 µM (active)"},
      {"measurement": "IC50", "setting": "[10]", "result": "1.32 µM (active)"},
      {"measurement": "IC50", "setting": "[11]", "result": "19.5 µM (active)"}
    ]},
    {"smiles": "COC(=O)C(C)(N)Cc1c[nH]c2ccccc12", "note": "(stereo not given)", "values": [
      {"measurement": "EC50", "setting": "[12]", "result": "> 100 µM (inactive)"}
    ]}
  ]
}
